Source: paper PMC11002876, “KcsA-Kv1.x chimeras with complete ligand-binding sites provide improved predictivity for screening selective Kv1.x blockers” (The Journal of Biological Chemistry, 2024)
Numbering of substitutions follows the chain as printed. “Also recorded” adds a separate entry of the source. Where a SMILES comes first, the peptide text is derived from it.

Legend:
[1] = molecular target: T1, KcsA-Kv1.3 T-only chimera (Streptomyces lividans, UniProt P0A334, A54D/A57S/G53D/G56T/I60S/L59F/Q58G/R52A/R64D/T61S/Y62I); assay: Phage-binding competition assay, KcsA-Kv1.3 T-only; parameters: species or system human Kv1.3 turret in Streptomyces lividans KcsA; conditions: for IC50: HgTx1-phage competition, T-only KcsA-Kv1.3, value given in figure, sigmoidal fit to means of three replicates, read-out: IC50 (Fig. 6E); for Rank, T-only chimera (Kv1.3): rank by competition IC50 among Vm24, HgTx1, KTX1
T1 construct: made in house; host or cells: E. coli XL1-Blue (pQE30)
T1 sequence (P0A334 1-160 R52A/G53D/A54D/G56T/A57S/Q58G/L59F/I60S/T61S/Y62I/R64D): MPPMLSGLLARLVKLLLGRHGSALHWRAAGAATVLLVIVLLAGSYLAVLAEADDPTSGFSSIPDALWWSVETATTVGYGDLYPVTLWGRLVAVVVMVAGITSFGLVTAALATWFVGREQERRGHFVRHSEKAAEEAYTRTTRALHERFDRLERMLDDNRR
Description: (§1) Phage stock solutions were diluted to working concentration with phage resuspension buffer supplemented with 2 mM DDM. For protein immobilization, the following amounts were used in a final volume of 50 μl/well: wt KcsA, 0.1 μg; KcsA-Kv1.1 T-only, 0.005 μg; KcsA-Kv1.1 T+F, 0.02 μg; KcsA-Kv1.2 T-only, 0.01 μg; KcsA-Kv1.2 T+F, 0.1 μg; KcsA-Kv1.3 T-only, 0.01 μg; and KcsA-Kv1.3 T+F, 0.1 μg. Protein samples were diluted in 50 μl of storage buffer (20 mM Tris pH8.0, 300 mM KCl, 2 mM DDM) and were added to the designated wells of a Pierce Clear, 96-Well Nickel Coated Plate (15442, Thermo Fisher Scientific), then incubated for 1 h at room temperature on a horizontal shaker at 130 rpm. The plate was blocked for 1 h at room temperature with 180 μl/well TBS-BSA supplemented with 1 mM DDM. Following blocking, the wells were washed 4× with washing buffer (300 μl TBS-Tween, 0.1% v/v) using a Wellwash Versa microplate washer (Thermo Fisher Scientific); then 50 μl phage solution (in TBS-BSA-Tween, 0.1% v/v, 2 mM DDM) at determined phage concentration was added to the wells and incubated for 1 h at room temperature on a horizontal shaker. The plate was washed 4× with washing buffer, then 50 μl anti-M13 IgG HRP (MA5-36125, Invitrogen) diluted to 1:2500 in TBS-Tween (0.1% v/v) was added to the wells and incubated for 1 h at room temperature. The plate was washed again 4× with 300 μl/well washing buffer. Finally, 50 μl/well 1-Step Ultra TMB-ELISA solution (34028, Thermo Fisher Scientific) was added to the wells, and the developing signal was stopped with 50 μl 1M HCl after 5 to 10 min. The light absorbance signal was read at 450 nm with Byonoy absorbance 96 plate reader (Byonoy GmbH).
(§2) For protein immobilization, the following amounts were used in a final volume of 50 μl/well: KcsA-Kv1.1 T-only, 0.005 μg; KcsA-Kv1.1 T+F, 0.01 μg; KcsA-Kv1.2 T-only, 0.025 μg; KcsA-Kv1.2 T+F, 0.0125 μg; KcsA-Kv1.3 T-only, 0.01 μg; and KcsA-Kv1.3 T+F, 0.1 μg. Protein samples were diluted in storage buffer. Binding of given concentrations of relevant ligand-displaying phages quantified by light absorbance ([…]) were investigated in a similar manner as in phage ELISA-binding assay, while different concentrations of competing toxin test substances were applied simultaneously. The results were converted to percent inhibitions (percent displacement) of the indicator phage binding, and relative affinities of the tested toxins were assessed by plotting percent displacements against log concentrations and determining half maximal inhibitory concentrations (IC50) by sigmoidal curve fitting using “Sigmoidal dose-response (variable slope) with least squares method” algorithm in GraphPad Prism 8 using the following equation: Y=Bottom+Top−Bottom/1+10^(LogEC50−×)⋅HillSlope

KcsA-Kv1.1 T+F chimera [2] = molecular target: T2, KcsA-Kv1.1 T+F chimera (Streptomyces lividans, UniProt P0A334, A54E/A57S/G53E/G56E/I60S/L59F/L81M/P55A/Q58H/R52A/R64D/T61S/Y62I); assay: Phage-binding competition assay, KcsA-Kv1.1 T+F; parameters: species or system human Kv1.1 turret and filter in Streptomyces lividans KcsA; conditions: displacement of ShK-phage; KcsA-Kv1.1 T+F 0.01 μg/well on nickel-coated plate; mean ± SD (n = 3); NQ = not quantifiable; read-out: IC50, T+F chimera (Kv1.1)
T2 sequence (P0A334 1-160 R52A/G53E/A54E/P55A/G56E/A57S/Q58H/L59F/I60S/T61S/Y62I/R64D/L81M): T1 sequence (P0A334 1-160 R52A/G53D/A54D/G56T/A57S/Q58G/L59F/I60S/T61S/Y62I/R64D) with D53E, D54E, P55A, T56E, G58H, L81M
Description: as §1, §2

KcsA-Kv1.1 T+F chimera [3] = molecular target: T3, KcsA-Kv1.1 T+F chimera (Streptomyces lividans, UniProt P0A334, R52A/G53E/A54E/P55A/G56E/A57S/Q58H/L59F/I60S/T61S/Y62I/R64D/L81M); assay: Phage-binding competition assay, KcsA-Kv1.1 T+F; parameters: species or system human Kv1.1 turret and filter in Streptomyces lividans KcsA; conditions: for competition binding to KcsA-Kv1.1 T+F, in words: ShK-phage competition, native peptide, Fig. 8F (ligand-binding pattern)
T3 sequence (P0A334 1-160 R52A/G53E/A54E/P55A/G56E/A57S/Q58H/L59F/I60S/T61S/Y62I/R64D/L81M): T1 sequence (P0A334 1-160 R52A/G53D/A54D/G56T/A57S/Q58G/L59F/I60S/T61S/Y62I/R64D) with D53E, D54E, P55A, T56E, G58H, L81M
Description: as §1, §2

[4] = molecular target: T4, KcsA-Kv1.2 T-only chimera (Streptomyces lividans, UniProt P0A334, R52A/G53D/A54E/P55R/G56E/A57S/L59F/I60P/T61S/Y62I/R64D); assay: Phage-binding competition assay, KcsA-Kv1.2 T-only; parameters: species or system human Kv1.2 turret in Streptomyces lividans KcsA; conditions: for binding to KcsA-Kv1.2 T-only, in words: HgTx1-phage competition, Fig. 7E (ligand-binding pattern)
T4 sequence (P0A334 1-160 R52A/G53D/A54E/P55R/G56E/A57S/L59F/I60P/T61S/Y62I/R64D): T1 sequence (P0A334 1-160 R52A/G53D/A54D/G56T/A57S/Q58G/L59F/I60S/T61S/Y62I/R64D) with D54E, P55R, T56E, G58Q, S60P
Description: as §1, §2

[5] = molecular target: T5, KcsA-Kv1.2 T-only chimera (Streptomyces lividans, UniProt P0A334, A54E/A57S/G53D/G56E/I60P/L59F/P55R/R52A/R64D/T61S/Y62I); assay: Phage-binding competition assay, KcsA-Kv1.2 T-only; parameters: species or system human Kv1.2 turret in Streptomyces lividans KcsA; conditions: displacement of HgTx1-phage; KcsA-Kv1.2 T-only 0.025 μg/well on nickel-coated plate; mean ± SD (n = 3); NQ = not quantifiable; read-out: IC50, T-only chimera (Kv1.2)
T5 sequence (P0A334 1-160 R52A/G53D/A54E/P55R/G56E/A57S/L59F/I60P/T61S/Y62I/R64D): T1 sequence (P0A334 1-160 R52A/G53D/A54D/G56T/A57S/Q58G/L59F/I60S/T61S/Y62I/R64D) with D54E, P55R, T56E, G58Q, S60P
Description: as §1, §2

## CC[C@H](C)[C@@H]1NC(=O)CNC(=O)[C@H](Cc2ccccc2)NC(=O)[C@H](CCC(N)=O)NC(=O)[C@H](C)NC(=O)[C@H](CCCCN)NC(=O)[C@@H]2CSSC[C@@H](C(=O)N[C@@H](Cc3ccc(O)cc3)C(=O)N3CCC[C@H]3C(=O)N[C@@H](Cc3c[nH]cn3)C(=O)O)NC(=O)[C@H](CCCCN)NC(=O)[C@@H]3CSSC[C@H](NC(=O)[C@H](CCC(N)=O)NC(=O)[C@H](CCCCN)NC(=O)[C@@H]4CCCN4C(=O)[C@H](CO)NC(=O)[C@H]([C@@H](C)O)NC(=O)[C@@H](NC(=O)[C@H](CCCCN)NC(=O)[C@@H](NC(=O)[C@H](CC(=O)O)NC(=O)[C@@H](NC(=O)[C@@H](NC(=O)[C@@H](N)[C@@H](C)O)C(C)C)[C@@H](C)CC)C(C)C)CSSC[C@H](NC(=O)[C@H](CCCCN)NC(=O)[C@H](C)NC(=O)CNC(=O)[C@H](C)NC(=O)[C@H](CCCNC(=N)N)NC1=O)C(=O)N[C@@H](CCSC)C(=O)N[C@@H](CC(N)=O)C(=O)NCC(=O)N[C@@H](CCCCN)C(=O)N3)C(=O)N[C@@H](CC(C)C)C(=O)N1CCC[C@H]1C(=O)N1CCC[C@H]1C(=O)N2 [HgTx1, Hongotoxin-1] (HELM PEPTIDE1{T.V.I.D.V.K.C.T.S.P.K.Q.C.L.P.P.C.K.A.Q.F.G.I.R.A.G.A.K.C.M.N.G.K.C.K.C.Y.P.H}$PEPTIDE1,PEPTIDE1,7:R3-29:R3|PEPTIDE1,PEPTIDE1,13:R3-34:R3|PEPTIDE1,PEPTIDE1,17:R3-36:R3$$$V2.0; N-terminus and C-terminus assumed)
[1]
  IC50: 0.671 nM
  Rank, T-only chimera (Kv1.3): 3

## CC[C@H](C)[C@@H]1NC(=O)[C@@H]2CSSC[C@H](NC(=O)[C@H](CO)NC(=O)[C@@H](N)C(C)C)C(=O)N[C@@H]([C@@H](C)O)C(=O)NCC(=O)N[C@@H](CO)C(=O)N[C@@H](CCCCN)C(=O)N[C@@H](CC(=O)O)C(=O)N[C@@H](CSSC[C@@H](C(=O)N[C@@H](CCCCN)C(=O)N[C@H]3CSSC[C@@H](C(N)=O)NC(=O)CNC(=O)[C@H](Cc4ccc(O)cc4)NC3=O)NC(=O)[C@H](CO)NC(=O)[C@H](CCCCN)NC(=O)[C@H](CC(N)=O)NC1=O)C(=O)N[C@@H](Cc1ccc(O)cc1)C(=O)N[C@@H](C)C(=O)N1CCC[C@H]1C(=O)N[C@H]1CSSC[C@H](NC(=O)CNC(=O)[C@H]([C@@H](C)O)NC(=O)[C@H](CCC(N)=O)NC(=O)[C@H](CCCCN)NC(=O)[C@H](CCCNC(=N)N)NC1=O)C(=O)N1CCC[C@H]1C(=O)N[C@@H](CC(N)=O)C(=O)N[C@@H](C)C(=O)N[C@@H](CCCCN)C(=O)N2 [MTX, Maurotoxin] (HELM PEPTIDE1{V.S.C.T.G.S.K.D.C.Y.A.P.C.R.K.Q.T.G.C.P.N.A.K.C.I.N.K.S.C.K.C.Y.G.C.[am]}$PEPTIDE1,PEPTIDE1,3:R3-24:R3|PEPTIDE1,PEPTIDE1,9:R3-29:R3|PEPTIDE1,PEPTIDE1,13:R3-19:R3|PEPTIDE1,PEPTIDE1,31:R3-34:R3$$$V2.0; N-terminus and C-terminus assumed)
KcsA-Kv1.1 T+F chimera [2]
  IC50: > 1000 nM
KcsA-Kv1.1 T+F chimera [3]
  competition binding to KcsA-Kv1.1 T+F, in words: ShK > KTX1 > MTX
KcsA-Kv1.1 T+F chimera [3]; listed as MTX1
  competition binding to KcsA-Kv1.1 T+F, in words: negligible binding
KcsA-Kv1.1 T+F chimera [3]; rank by competition IC50 among ShK, KTX1, MTX
  Rank, T+F chimera (Kv1.1): 3
[4]
  binding to KcsA-Kv1.2 T-only, in words: ShK > KTX1 > MTX; also recorded: completely lost its affinity
[4]; listed as MTX1
  binding to KcsA-Kv1.2 T-only, in words: negligible binding
[4]; rank by competition IC50 among MTX, ShK, KTX1
  Rank, T-only chimera (Kv1.2): 3
[5]
  IC50: > 1000 nM

## CC[C@H](C)[C@H](NC(=O)[C@H](C)NC(=O)[C@H](C)NC(=O)[C@H](C)N)C(=O)N[C@@H](CO)C(=O)N[C@H]1CSSC[C@@H]2NC(=O)[C@H](CCCCN)NC(=O)CNC(=O)[C@H](CC(N)=O)NC(=O)[C@H](CCCCN)NC(=O)[C@@H]3CSSC[C@@H](C(N)=O)NC(=O)[C@H](Cc4ccc(O)cc4)NC(=O)[C@H](Cc4ccc(O)cc4)NC(=O)[C@@H]4CSSC[C@H](NC(=O)[C@H](CCCCN)NC(=O)[C@@H]5CCCN5C(=O)[C@@H]5CCCN5C(=O)[C@H](CSSC[C@H](NC(=O)[C@H](CCCCN)NC(=O)[C@H](CCCNC(=N)N)NC(=O)[C@H](CC(N)=O)NC(=O)[C@H](CCSC)NC2=O)C(=O)N[C@@H](CCCCN)C(=O)N4)NC(=O)[C@H](CCC(=O)O)NC(=O)[C@@H]2CCCN2C(=O)[C@H](CO)NC(=O)CNC(=O)[C@H](C(C)C)NC1=O)C(=O)N[C@@H](CCCNC(=N)N)C(=O)N[C@@H](C)C(=O)N[C@@H](CCC(N)=O)C(=O)NCC(=O)N3 [Vm24, Vm24 toxin]
[1]
  IC50: 0.603 nM
  Rank, T-only chimera (Kv1.3): 2
